How the values were obtained:
Type in all cases: biochemical
RNase T1 = target: T1, RNase T1 (Aspergillus oryzae, UniProt P00651); assay: Radiolabeled RNA probe degradation gel assay, RNase T1; conditions: 0.15 U RNase T1
T1 sequence (P00651 27-130): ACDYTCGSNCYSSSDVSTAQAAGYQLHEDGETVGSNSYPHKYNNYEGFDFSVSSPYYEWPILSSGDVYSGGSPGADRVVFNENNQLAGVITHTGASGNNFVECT
Experimental: (§1) The activity of anti-nuclease antibodies is readily determined using radiolabeled RNA or DNA to detect the inhibition of RNase or DNase by the anti-nuclease antibodies. In general, the nuclease and anti-nuclease antibody are separately diluted, typically in 1× assay buffer. Assay buffer, nuclease and anti-nuclease antibody are then added to 0.5 ml microfuge tubes. For assaying anti-RNase activity, a mixture comprising assay buffer, RNA and radiolabeled RNA is added to the microfuge tubes. The “MIX” of assay buffer, RNA and radiolabeled RNA is generally prepared by combining 10× Assay Buffer (0.9 μl/rxn), 5 mg/ml yeast RNA (0.4 μl/rxn), ^32-β actin RNA (1 μl/rxn), and nuclease-free H2O (6.7 μl/rxn) for a total of 9 μl/rxn. The tubes are vortexed and microfuged, then incubated at 37° C. for 30 minutes. After incubation, a portion of the tube contents is removed and placed into gel loading buffer. Then the tube contents and the gel loading buffer are mixed, and the combination is loaded onto a gel, typically a 8M urea/5% acrylamide gel, which is exposed to film. […]
(§2) The activity of an anti-nuclease cocktail is readily determined using radiolabeled RNA or DNA to detect the inhibition of nuclease by anti-nuclease antibodies in the anti-nuclease cocktail. […]

RNase A = target: T2, RNase A (Bos taurus, UniProt P61823); assay: Radiolabeled RNA probe degradation gel assay, RNase A; conditions: DTT up to 250 mM, at 37° C.
T2 sequence (P61823 27-150): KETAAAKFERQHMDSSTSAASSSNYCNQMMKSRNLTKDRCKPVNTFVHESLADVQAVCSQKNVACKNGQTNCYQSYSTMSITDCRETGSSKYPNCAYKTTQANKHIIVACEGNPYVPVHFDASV
Experimental: The activity of an anti-nuclease cocktail is readily determined using radiolabeled RNA or DNA to detect the inhibition of nuclease by anti-nuclease antibodies in the anti-nuclease cocktail. […] Assay buffer, nuclease and an anti-nuclease cocktail are then added to 0.5 ml microfuge tubes. A mixture comprising assay buffer, RNA or DNA and radiolabeled RNA or DNA is added to the microfuge tubes, and the tubes are vortexed and microfuged. After incubation of the tubes at 37° C. for 30 minutes, a portion of the tube contents is removed and placed into gel loading buffer. After mixing, the combination is loaded onto a gel, typically a 8M urea/5% acrylamide gel, which is exposed to film.
Radiolabeled RNA was used to detect the inhibition of RNase A, RNase T1, and RNase 1 by specific antibodies.
The “MIX” was prepared by combining 10× Assay Buffer (0.9 μl/rxn), 5 mg/ml yeast RNA (0.4 μl/rxn), ^32P-labeled β actin RNA (1 μl/rxn), and nuclease-free H2O (6.7 μl/rxn), for a total of 9 μl/rxn.
1× Assay Buffer was added first. Then Specific RNase Cocktail, Specific Anti-RNase Cocktail and MIX were added. The tubes are vortexed and microfuged, then incubated at 37° C. for 30 min (Table 9).
At the end of the incubation time, 10 μl of solution was removed from the tube and placed into 10 μl Gel Loading Buffer II. The combination was mixed thoroughly and loaded onto a 8M urea/5% acrylamide gel. The gel was exposed to film for 30 min. at −80° C. with an intensifying screen.

E. coli RNase 1 = E. coli RNase 1 (Escherichia coli, UniProt P21338); assay: Radiolabeled RNA probe degradation gel assay, RNase 1; conditions: 1 U RNase 1, 30 minute incubation at 37° C.
Chain of E. coli RNase 1 (P21338 24-268): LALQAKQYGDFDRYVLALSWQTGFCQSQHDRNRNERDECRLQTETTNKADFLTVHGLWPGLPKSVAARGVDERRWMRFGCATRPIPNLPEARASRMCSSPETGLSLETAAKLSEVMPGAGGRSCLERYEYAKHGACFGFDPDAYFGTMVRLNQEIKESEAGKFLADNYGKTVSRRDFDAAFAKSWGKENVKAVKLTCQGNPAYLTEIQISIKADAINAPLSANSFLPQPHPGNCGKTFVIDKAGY
Experimental: as §1, §2

Structure (SMILES): O[C@H](CS)[C@H](O)CS (racemic) [DTT, dithiothreitol]
- concentration that inhibited RNase T1 (RNase T1): 5–10 mM DTT inhibited 0.15 U RNase T1
- inhibition of RNase A activity (RNase A): At 37° C., DTT up to 250 mM did not inhibit RNase Aactivity.
- concentration that inhibited RNase 1 (E. coli RNase 1): 1–3 mM DTT inhibited 1 U RNase 1 during 30 minute incubation at 37 °C

From US7264932B2, “Nuclease inhibitor cocktail” (Applera Corporation, priority 1999, dated 2007)
